Results: article PMC7316778 (Nature Communications, 2020)
Where “and” joins values, the source holds several entries; their conditions need not be identical. Identical values can stand only once. Like-named read-outs stand apart in the source and are kept apart here.

Columns and labels:
MAP2K6 (MKK6) = target: T1, MAP2K6 (MKK6) (Homo sapiens, UniProt P52564); assay: SelectScreen kinase assay
T1 sequence (P52564 1-334): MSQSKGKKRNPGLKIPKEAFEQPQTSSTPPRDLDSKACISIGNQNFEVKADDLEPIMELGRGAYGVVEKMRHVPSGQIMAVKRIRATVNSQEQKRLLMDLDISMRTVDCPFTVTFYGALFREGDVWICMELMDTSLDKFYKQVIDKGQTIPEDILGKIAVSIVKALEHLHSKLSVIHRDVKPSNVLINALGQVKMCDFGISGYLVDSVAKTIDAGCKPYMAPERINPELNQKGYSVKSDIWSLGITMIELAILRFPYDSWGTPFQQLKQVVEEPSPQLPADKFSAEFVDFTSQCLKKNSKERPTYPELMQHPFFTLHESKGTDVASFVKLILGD
Description: (§1) Selectivity profiling assays were performed by the Invitrogen SelectScreen™ Services. […] The concentration of ATP was selected to be equal to the KM, unless indicated otherwise.

FGFR1 = FGFR1 (Homo sapiens, UniProt P11362); assay: SelectScreen kinase assay
Description: as §1

FES^S700C = FES^S700C (Homo sapiens, UniProt P07332, S700C); assay: Inhibitor washout by dialysis; type: binding; set-up: expressed in transfected cells; host or cells: HEK293T (transient, PEI)
FES^S700C, sequence (P07332 whole entry S700C): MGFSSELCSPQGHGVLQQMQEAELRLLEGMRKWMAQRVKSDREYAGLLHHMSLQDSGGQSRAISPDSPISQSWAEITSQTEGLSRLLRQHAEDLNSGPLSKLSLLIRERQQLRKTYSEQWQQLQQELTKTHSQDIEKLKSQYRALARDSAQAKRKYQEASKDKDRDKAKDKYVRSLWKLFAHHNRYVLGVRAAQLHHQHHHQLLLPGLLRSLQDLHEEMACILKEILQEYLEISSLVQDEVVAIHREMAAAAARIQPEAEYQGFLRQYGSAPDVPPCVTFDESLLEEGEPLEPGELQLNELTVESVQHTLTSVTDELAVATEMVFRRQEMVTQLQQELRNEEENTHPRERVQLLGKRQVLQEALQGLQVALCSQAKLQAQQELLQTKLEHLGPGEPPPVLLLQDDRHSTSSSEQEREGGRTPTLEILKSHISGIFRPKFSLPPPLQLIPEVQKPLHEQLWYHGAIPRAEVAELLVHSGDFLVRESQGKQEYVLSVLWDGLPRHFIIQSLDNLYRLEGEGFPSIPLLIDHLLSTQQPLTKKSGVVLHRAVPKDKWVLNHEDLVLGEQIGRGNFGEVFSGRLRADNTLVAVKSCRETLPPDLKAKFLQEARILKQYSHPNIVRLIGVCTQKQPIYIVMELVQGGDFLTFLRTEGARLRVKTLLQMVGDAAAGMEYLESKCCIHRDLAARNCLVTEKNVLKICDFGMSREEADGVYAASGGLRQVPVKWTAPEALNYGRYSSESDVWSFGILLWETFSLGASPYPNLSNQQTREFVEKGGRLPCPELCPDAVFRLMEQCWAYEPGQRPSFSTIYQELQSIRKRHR

CHEK2 (CHK2) = CHEK2 (CHK2) (Homo sapiens, UniProt O96017); assay: SelectScreen kinase assay
Description: as §1

MET (cMet) = MET (cMet) (Homo sapiens, UniProt P08581); assay: SelectScreen kinase assay
MET (cMet), sequence (P08581 25-1390): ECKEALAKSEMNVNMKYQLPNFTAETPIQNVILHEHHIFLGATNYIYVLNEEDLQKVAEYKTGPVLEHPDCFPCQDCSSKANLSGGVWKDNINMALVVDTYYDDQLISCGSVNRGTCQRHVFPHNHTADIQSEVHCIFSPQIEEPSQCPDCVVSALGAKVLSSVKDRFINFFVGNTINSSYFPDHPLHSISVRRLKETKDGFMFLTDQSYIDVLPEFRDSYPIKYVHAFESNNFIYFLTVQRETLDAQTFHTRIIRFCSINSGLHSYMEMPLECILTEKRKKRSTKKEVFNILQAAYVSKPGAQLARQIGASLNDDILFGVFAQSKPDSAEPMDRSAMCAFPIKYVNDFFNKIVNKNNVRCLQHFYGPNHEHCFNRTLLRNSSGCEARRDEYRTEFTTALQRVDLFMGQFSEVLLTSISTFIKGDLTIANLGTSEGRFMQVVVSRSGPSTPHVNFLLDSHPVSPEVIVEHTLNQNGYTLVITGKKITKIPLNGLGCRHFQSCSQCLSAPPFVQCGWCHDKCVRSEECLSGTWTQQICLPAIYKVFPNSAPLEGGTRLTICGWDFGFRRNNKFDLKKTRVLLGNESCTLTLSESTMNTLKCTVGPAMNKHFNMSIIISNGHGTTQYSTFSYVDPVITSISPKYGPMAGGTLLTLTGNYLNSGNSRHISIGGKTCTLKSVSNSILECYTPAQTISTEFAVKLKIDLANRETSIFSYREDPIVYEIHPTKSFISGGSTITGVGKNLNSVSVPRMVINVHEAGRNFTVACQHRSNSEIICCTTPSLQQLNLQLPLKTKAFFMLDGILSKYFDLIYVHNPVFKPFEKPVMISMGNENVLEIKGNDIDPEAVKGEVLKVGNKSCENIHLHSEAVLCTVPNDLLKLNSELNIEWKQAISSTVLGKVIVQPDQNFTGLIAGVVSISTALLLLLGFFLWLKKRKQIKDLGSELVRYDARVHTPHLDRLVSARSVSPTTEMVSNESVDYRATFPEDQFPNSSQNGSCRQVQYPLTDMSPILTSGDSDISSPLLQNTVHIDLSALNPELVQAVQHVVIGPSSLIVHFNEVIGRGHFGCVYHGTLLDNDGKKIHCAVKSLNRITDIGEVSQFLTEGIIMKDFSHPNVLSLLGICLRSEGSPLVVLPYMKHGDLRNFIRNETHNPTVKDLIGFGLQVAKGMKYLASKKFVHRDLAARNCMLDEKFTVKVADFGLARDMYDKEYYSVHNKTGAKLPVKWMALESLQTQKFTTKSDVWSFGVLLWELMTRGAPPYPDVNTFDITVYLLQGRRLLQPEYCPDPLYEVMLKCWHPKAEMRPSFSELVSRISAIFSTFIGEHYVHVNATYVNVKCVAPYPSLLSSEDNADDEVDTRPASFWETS
Description: as §1

MAP3K2 (MEKK2) = MAP3K2 (MEKK2) (Homo sapiens, UniProt Q9Y2U5); assay: SelectScreen kinase assay
Description: as §1

PI4K2B (PI4K2 beta) = PI4K2B (PI4K2 beta) (Homo sapiens, UniProt Q8TCG2); assay: SelectScreen kinase assay; conditions: for Inhibition at 1 µM (%): PI4K2B (PI4K2 beta), Adapta, ATP 10
PI4K2B (PI4K2 beta), sequence (Q8TCG2 whole entry): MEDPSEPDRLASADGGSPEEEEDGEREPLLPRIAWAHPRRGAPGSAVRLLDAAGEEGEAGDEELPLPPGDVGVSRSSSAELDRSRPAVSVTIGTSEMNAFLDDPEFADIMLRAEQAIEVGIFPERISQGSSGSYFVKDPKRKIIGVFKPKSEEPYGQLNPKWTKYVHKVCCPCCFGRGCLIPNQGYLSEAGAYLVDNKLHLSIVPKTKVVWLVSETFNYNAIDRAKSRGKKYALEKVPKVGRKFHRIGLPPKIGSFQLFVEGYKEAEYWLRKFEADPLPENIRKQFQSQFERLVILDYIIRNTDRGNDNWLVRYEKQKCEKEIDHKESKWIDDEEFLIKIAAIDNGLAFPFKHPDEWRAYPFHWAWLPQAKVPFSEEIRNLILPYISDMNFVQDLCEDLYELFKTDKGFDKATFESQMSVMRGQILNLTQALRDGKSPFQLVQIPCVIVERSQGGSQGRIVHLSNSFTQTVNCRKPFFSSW
Description: as §1

CSNK1D (CK1 delta) = CSNK1D (CK1 delta) (Homo sapiens, UniProt P48730); assay: SelectScreen kinase assay; conditions: 1 h, 1 μM WEL028, 1 h preincubation
Description: as §1

CDK9/cyclin T1 = CDK9/cyclin T1 (Homo sapiens, UniProt P50750); assay: SelectScreen kinase assay
Description: as §1

DMPK = DMPK (Homo sapiens, UniProt Q09013); assay: SelectScreen kinase assay
DMPK, sequence (Q09013 whole entry): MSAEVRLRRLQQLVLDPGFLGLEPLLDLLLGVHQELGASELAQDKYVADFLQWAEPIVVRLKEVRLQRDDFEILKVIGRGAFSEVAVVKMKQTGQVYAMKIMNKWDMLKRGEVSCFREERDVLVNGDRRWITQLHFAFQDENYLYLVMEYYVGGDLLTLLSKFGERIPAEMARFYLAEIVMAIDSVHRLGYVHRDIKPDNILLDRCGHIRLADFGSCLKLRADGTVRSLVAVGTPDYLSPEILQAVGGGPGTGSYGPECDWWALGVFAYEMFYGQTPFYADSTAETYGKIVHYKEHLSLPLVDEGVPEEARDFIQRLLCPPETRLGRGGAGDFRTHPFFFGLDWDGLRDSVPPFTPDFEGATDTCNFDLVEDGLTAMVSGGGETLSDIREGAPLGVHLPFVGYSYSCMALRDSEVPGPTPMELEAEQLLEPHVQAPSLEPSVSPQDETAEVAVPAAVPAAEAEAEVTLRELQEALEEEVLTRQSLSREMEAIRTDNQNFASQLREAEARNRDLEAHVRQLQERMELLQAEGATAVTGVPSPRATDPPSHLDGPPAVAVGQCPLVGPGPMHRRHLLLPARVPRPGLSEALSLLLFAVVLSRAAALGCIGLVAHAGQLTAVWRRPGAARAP
Description: as §1

PHKG2 = PHKG2 (Homo sapiens, UniProt P15735); assay: SelectScreen kinase assay
Description: as §1

MAP3K9 (MLK1) = MAP3K9 (MLK1) (Homo sapiens, UniProt P80192); assay: SelectScreen kinase assay
Description: as §1

MYO3A (MYO3 alpha) = MYO3A (MYO3 alpha) (Homo sapiens, UniProt Q8NEV4); assay: SelectScreen kinase assay
MYO3A (MYO3 alpha), sequence (Q8NEV4 whole entry): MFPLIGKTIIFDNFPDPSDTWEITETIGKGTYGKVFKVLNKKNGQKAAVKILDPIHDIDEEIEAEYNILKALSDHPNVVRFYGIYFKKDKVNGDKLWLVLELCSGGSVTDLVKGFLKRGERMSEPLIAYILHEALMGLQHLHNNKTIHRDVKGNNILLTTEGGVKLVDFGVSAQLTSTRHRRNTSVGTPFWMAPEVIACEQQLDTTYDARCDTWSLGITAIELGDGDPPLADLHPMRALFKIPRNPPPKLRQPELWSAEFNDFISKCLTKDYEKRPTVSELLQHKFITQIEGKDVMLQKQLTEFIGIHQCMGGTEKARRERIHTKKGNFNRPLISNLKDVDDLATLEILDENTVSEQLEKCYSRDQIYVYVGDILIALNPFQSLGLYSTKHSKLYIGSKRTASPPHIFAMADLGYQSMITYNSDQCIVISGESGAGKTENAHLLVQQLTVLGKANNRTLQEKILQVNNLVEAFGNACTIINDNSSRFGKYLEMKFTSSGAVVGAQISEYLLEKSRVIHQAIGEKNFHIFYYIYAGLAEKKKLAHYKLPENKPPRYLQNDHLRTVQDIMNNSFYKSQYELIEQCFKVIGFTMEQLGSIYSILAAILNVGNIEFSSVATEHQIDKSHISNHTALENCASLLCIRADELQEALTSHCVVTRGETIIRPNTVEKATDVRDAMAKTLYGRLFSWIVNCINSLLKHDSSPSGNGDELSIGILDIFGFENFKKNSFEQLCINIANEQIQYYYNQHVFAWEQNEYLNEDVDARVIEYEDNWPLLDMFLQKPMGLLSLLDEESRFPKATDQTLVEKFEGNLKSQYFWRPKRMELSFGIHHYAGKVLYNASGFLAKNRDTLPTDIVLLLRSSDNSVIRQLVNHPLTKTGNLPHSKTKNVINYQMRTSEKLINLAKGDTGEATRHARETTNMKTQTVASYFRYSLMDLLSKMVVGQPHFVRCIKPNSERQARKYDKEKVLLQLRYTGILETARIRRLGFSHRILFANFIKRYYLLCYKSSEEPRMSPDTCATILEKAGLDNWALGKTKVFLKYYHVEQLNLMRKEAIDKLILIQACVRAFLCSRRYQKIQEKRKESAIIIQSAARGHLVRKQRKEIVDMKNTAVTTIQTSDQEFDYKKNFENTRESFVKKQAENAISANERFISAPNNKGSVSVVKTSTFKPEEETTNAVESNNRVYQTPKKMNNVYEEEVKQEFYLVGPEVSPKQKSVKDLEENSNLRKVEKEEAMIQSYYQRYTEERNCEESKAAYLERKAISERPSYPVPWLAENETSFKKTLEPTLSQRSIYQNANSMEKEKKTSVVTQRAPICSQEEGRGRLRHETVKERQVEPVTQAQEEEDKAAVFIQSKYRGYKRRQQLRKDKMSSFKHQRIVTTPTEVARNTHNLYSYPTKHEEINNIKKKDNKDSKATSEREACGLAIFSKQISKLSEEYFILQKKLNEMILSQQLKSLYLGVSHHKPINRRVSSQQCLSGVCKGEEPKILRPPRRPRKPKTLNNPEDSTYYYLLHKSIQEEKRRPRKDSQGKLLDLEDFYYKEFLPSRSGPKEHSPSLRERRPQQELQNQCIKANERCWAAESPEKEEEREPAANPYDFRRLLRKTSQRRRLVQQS
Description: as §1

MAP2K5 (MEK5) = target: T2, MAP2K5 (MEK5) (Homo sapiens, UniProt Q13163); assay: SelectScreen kinase assay
T2 sequence (Q13163 1-448): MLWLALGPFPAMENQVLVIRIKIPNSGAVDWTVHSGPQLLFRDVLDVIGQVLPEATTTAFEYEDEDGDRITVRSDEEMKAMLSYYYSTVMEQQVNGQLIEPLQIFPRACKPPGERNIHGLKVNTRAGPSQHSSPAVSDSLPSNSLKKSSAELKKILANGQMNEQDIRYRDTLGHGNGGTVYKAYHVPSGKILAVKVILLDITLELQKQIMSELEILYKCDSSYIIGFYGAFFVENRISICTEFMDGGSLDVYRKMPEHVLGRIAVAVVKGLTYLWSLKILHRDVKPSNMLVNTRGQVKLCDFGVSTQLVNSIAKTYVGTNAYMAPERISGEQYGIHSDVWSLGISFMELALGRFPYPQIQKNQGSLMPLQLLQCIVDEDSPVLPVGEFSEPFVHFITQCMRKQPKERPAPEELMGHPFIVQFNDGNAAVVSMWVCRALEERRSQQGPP
Description: as §1

[1] = 1 h, 1 μM WEL028, 1 h preincubation

Q: What does the source list for C#CCOc1ccc(Nc2ncc(Cl)c(Nc3ccccc3NC(=O)C=C)n2)c(OC)c1 [Compound 6]?
A: IC50 (MAP2K6 (MKK6)): 316 nM; inhibition at 1 µM (MAP2K6 (MKK6); [1]): 73%; inhibition at 10 µM (MAP2K6 (MKK6); 1 h, log[inhibitor] (M) -5.00, ZLYTE, ATP 100): 92%; inhibition at 3.311 µM (MAP2K6 (MKK6); 1 h, log[inhibitor] (M) -5.48, ZLYTE, ATP 100): 96%; inhibition at 1.122 µM (MAP2K6 (MKK6); 1 h, log[inhibitor] (M) -5.95, ZLYTE, ATP 100): 80%; inhibition at 0.3715 µM (MAP2K6 (MKK6); 1 h, log[inhibitor] (M) -6.43, ZLYTE, ATP 100): 51%; inhibition at 0.123 µM (MAP2K6 (MKK6); 1 h, log[inhibitor] (M) -6.91, ZLYTE, ATP 100): 29%; inhibition at 0.0138 µM (MAP2K6 (MKK6); 1 h, log[inhibitor] (M) -7.86, ZLYTE, ATP 100): 11%; inhibition at 0.001514 µM (MAP2K6 (MKK6); 1 h, log[inhibitor] (M) -8.82, ZLYTE, ATP 100): 4%; Apparent fold selectivity (MAP2K6 (MKK6); IC50 on that kinase divided by IC50 on FES^S700C): 68 fold; inhibition at 1 µM (MAP2K6 (MKK6); read-out: Inhibition at 1 µM (%), MAP2K6 (MKK6), 1 µM, ZLYTE, ATP 100): 73%; inhibition at 1 µM (FGFR1; [1]): 3%; Inhibition at 1 µM (%) (FGFR1; FGFR1, 1 µM, ZLYTE, ATP Km app, listed as WEL028, 1 µM): 5% and 1%; IC80 (FES^S700C; concentration used for dialysis, 30 min, rt): 231 nM; Relative FES labeling (% of vehicle), Pre-dialysis (FES^S700C; inhibitor at IC80, WEL033 250 nM, replicates, listed as WEL028): 2.76% and 2.085% and 2.269%; Relative FES labeling (% of vehicle), Post-dialysis (FES^S700C; overnight dialysis at 4 °C, WEL033 250 nM, replicates, listed as WEL028): 10.52% and 32.8765% and 11.5588%; inhibition at 1 µM (CHEK2 (CHK2); [1]): 4%; Inhibition at 1 µM (%) (CHEK2 (CHK2); CHEK2 (CHK2), 1 µM, ZLYTE, ATP Km app): 14%; Inhibition (%) (MET (cMet); 1 μM WEL028, 1 h preincubation): -4%; Inhibition at 1 µM (%) (MET (cMet); MET (cMet), 1 µM, ZLYTE, ATP Km app, listed as WEL028, 1 µM): 0% and -9%; inhibition at 1 µM (MAP3K2 (MEKK2); [1]): 3%; Inhibition at 1 µM (%) (MAP3K2 (MEKK2); MAP3K2 (MEKK2), 1 µM, LanthaScreen Binding, listed as WEL028, 1 µM): 6% and 1%; inhibition at 1 µM (PI4K2B (PI4K2 beta); [1]): 2%; Inhibition at 1 µM (%) (PI4K2B (PI4K2 beta)): 3%; Inhibition at 1 µM (%) (PI4K2B (PI4K2 beta); listed as WEL028, 1 µM): 0%; inhibition at 1 µM (CSNK1D (CK1 delta)): 18%; inhibition at 1 µM (CDK9/cyclin T1; [1]): 16%; Inhibition at 1 µM (%) (CDK9/cyclin T1; CDK9/cyclin T1, 1 µM, Adapta, ATP Km app, listed as WEL028, 1 µM): 12%; inhibition at 1 µM (CDK9/cyclin T1; read-out: Inhibition at 1 µM (%), CDK9/cyclin T1, 1 µM, Adapta, ATP Km app): 20%; inhibition at 1 µM (DMPK; [1]): 3%; Inhibition at 1 µM (%) (DMPK; DMPK, 1 µM, LanthaScreen Binding, listed as WEL028, 1 µM): 1% and 5%; inhibition at 1 µM (PHKG2; [1]): 0%; Inhibition at 1 µM (%) (PHKG2; PHKG2, 1 µM, ZLYTE, ATP Km app): 11%; inhibition at 1 µM (MAP3K9 (MLK1); [1]): -11%; Inhibition at 1 µM (%) (MAP3K9 (MLK1); MAP3K9 (MLK1), 1 µM, ZLYTE, ATP Km app): -21%; inhibition at 1 µM (MYO3A (MYO3 alpha); [1]): 17%; Inhibition at 1 µM (%) (MYO3A (MYO3 alpha); MYO3A (MYO3 alpha), 1 µM, LanthaScreen Binding, listed as WEL028, 1 µM): 16%; inhibition at 1 µM (MYO3A (MYO3 alpha); read-out: Inhibition at 1 µM (%), MYO3A (MYO3 alpha), 1 µM, LanthaScreen Binding): 18%; inhibition at 1 µM (MAP2K5 (MEK5); [1]): 53%; Inhibition at 1 µM (%) (MAP2K5 (MEK5); MAP2K5 (MEK5), 1 µM, LanthaScreen Binding, listed as WEL028, 1 µM): 52%; inhibition at 1 µM (MAP2K5 (MEK5); read-out: Inhibition at 1 µM (%), MAP2K5 (MEK5), 1 µM, LanthaScreen Binding): 53%
